Tested on: Human dermal fibroblasts
Assay: Hyaluronic Acid (HA) Secretion (Assay 4, ELISA)
Assay type: cell-based
Details: 20 ng/ml (positive control), 48 hours post-treatment
Procedure: Human dermal fibroblasts were maintained in flask in growth medium consisting of DMEM plus 10% fetal bovine serum, 50 units/ml penicillin and 50 μg/ml streptomycin. Cells were seeded at 10,000 cells per well in a 96 well plate. After 24 hours incubation, cells were treated with test articles dissolved in DMSO or DMSO without extracts (as control) prepared in DMEM+2% FBS. Culture media was collected at 48 hours post-treatment, and measured for HA (Hyaluronic acid) secretion using Hyaluronan ELISA kit (Echelon, cat. #K-1200) following the manufacturer protocol. To assess activity, the colorimetric chance was measured at 405 nm and the results expressed as a fold change over untreated controls.

For TGF-b, the “HA secretion Fold Change” value was 2.54 fold.

From US20150024072A1, “METHODS OF TREATING A SKIN CONDITION WITH MALVA NEGLECTA” (Johnson & Johnson Consumer Companies, Inc., priority 2013, published 2015)
